Data taken from ChEMBL document CHEMBL1821663, “Synthesis and biological evaluation of glycogen synthase kinase 3 (GSK-3) inhibitors: an fast and atom efficient access to 1-aryl-3-benzylureas” (Bioorg Med Chem Lett, 2011).

Legend:
[1] = target: Casein kinase I isoform epsilon (Homo sapiens, UniProt P49674); test: Inhibition of human CKI epsilon activity using Ser/Thr 11 peptide as substrate by FRET assay
Aurora kinase A = target: T1, Aurora kinase A (Homo sapiens, UniProt O14965); test: Inhibition of human AURKA activity using Ser/Thr 1 peptide as substrate by FRET assay
T1 sequence (O14965 whole entry): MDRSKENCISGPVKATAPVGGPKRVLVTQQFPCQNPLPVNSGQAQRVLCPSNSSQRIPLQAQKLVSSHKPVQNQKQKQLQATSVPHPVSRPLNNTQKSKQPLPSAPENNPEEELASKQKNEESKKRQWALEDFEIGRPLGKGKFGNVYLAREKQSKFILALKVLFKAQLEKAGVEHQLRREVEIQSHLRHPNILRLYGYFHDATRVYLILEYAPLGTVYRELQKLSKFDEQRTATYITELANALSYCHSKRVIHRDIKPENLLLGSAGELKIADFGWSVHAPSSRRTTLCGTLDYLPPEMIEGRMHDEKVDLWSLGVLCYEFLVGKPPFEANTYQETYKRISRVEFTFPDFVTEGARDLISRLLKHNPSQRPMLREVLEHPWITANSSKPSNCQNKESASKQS

[2] = target: Protein kinase C alpha type (Homo sapiens, UniProt P17252); test: Inhibition of human PKCalpha activity using Ser/Thr 7 peptide as substrate by FRET assay
[3] = target: Cyclin-dependent kinase 5/CDK5 activator 1 (Homo sapiens, UniProt Q00535); test: Inhibition of human CDK5/p35 activity using Ser/Thr 12 peptide as substrate by FRET assay; type: protein-complex assay
Sequence of Cyclin-dependent kinase 5/CDK5 activator 1 (Q00535 whole entry): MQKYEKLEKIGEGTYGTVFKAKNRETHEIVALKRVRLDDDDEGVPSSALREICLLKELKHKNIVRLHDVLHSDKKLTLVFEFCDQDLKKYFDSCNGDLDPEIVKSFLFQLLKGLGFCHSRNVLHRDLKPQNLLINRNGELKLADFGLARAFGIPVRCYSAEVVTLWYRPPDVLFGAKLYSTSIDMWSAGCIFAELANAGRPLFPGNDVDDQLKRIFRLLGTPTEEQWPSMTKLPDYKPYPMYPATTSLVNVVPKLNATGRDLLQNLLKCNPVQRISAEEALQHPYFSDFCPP
Sequence of Cyclin-dependent kinase 5/CDK5 activator 1 (Q15078 whole entry, further chain): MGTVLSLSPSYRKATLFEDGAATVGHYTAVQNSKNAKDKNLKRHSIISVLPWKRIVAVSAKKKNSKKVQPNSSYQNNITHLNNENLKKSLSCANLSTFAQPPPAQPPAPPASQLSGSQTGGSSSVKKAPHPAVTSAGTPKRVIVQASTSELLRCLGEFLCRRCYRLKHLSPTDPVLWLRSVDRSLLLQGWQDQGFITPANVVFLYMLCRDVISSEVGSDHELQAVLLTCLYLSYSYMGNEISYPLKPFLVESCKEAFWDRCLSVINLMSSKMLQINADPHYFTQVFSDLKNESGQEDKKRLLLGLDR

[4] = target: T2, Glycogen synthase kinase-3 beta (Homo sapiens, UniProt P49841); test: Inhibition of human GSK3-beta activity using Ser/Thr 9 peptide as substrate by FRET assay
Target sequence in this assay (P49841 whole entry): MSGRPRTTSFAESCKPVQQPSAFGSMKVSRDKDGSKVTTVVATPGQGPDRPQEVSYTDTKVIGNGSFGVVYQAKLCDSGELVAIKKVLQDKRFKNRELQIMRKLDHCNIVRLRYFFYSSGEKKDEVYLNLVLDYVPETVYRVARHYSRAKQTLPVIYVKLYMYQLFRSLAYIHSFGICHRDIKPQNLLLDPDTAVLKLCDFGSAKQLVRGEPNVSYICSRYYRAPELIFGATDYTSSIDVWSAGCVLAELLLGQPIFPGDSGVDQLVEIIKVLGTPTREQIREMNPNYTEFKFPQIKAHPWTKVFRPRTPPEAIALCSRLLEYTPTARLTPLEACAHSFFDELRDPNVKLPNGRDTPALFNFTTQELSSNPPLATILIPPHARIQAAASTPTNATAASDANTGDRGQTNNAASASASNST

[5] = target: Glycogen synthase kinase-3 alpha (Homo sapiens, UniProt P49840); test: Inhibition of human GSK3alpha activity using Ser/Thr 11 peptide as substrate by FRET assay
Sequence of Glycogen synthase kinase-3 alpha (P49840 whole entry): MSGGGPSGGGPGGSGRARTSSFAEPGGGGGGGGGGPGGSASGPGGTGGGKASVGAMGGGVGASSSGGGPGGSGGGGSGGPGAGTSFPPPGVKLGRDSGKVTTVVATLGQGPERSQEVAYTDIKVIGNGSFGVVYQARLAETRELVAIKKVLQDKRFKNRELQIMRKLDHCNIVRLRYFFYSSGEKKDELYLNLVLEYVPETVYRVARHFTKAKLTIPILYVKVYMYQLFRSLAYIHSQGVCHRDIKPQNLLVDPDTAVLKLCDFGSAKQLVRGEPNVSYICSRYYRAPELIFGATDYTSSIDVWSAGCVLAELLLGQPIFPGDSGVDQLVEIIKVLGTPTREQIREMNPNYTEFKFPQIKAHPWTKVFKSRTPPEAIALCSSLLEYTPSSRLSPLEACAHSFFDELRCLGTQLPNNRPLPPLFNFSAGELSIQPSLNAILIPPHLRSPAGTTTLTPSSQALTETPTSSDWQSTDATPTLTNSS

[6] = target: T2, Glycogen synthase kinase-3 beta; test: Inhibition of GSK3-beta assessed as [32P]gamma-ATP incorporation into substrate at 1 uM after 15 mins by gamma counting; values are per cent of control
Target sequence in this assay (P49841 whole entry, looked up): as the sequence (P49841 whole entry) above

[7] = target: T2, Glycogen synthase kinase-3 beta; test: Inhibition of GSK3-beta assessed as [32P]gamma-ATP incorporation into substrate at 10 uM after 15 mins by gamma counting; values are per cent of control
Target sequence in this assay (P49841 whole entry, looked up): as the sequence (P49841 whole entry) above

Danio rerio [8] = species: Danio rerio; test: Toxicity in 8 to 15 -somite stage zebrafish embryo after 18 to 25 hrs; type: organism-based; settings: in vivo
Danio rerio [9] = species: Danio rerio; test: Toxicity in 8 to 15 -somite stage zebrafish embryo assessed as deformation in fish tail formation at 100 uM after 18 to 25 hrs; type: organism-based; settings: in vivo
Danio rerio [10] = species: Danio rerio; test: Toxicity in 8 to 15 -somite stage zebrafish embryo assessed as swimming movements in circles at 100 uM after 18 to 25 hrs; type: organism-based; settings: in vivo
Danio rerio [11] = species: Danio rerio; test: Toxicity in 8 to 15 -somite stage zebrafish embryo assessed as deformation in fish tail formation at 25 uM after 18 to 25 hrs; type: organism-based; settings: in vivo
Danio rerio [12] = species: Danio rerio; test: Toxicity in 8 to 15 -somite stage zebrafish embryo assessed as swimming movements in circles at 25 uM after 18 to 25 hrs; type: organism-based; settings: in vivo

Sequence of Casein kinase I isoform epsilon (P49674 whole entry, canonical isoform): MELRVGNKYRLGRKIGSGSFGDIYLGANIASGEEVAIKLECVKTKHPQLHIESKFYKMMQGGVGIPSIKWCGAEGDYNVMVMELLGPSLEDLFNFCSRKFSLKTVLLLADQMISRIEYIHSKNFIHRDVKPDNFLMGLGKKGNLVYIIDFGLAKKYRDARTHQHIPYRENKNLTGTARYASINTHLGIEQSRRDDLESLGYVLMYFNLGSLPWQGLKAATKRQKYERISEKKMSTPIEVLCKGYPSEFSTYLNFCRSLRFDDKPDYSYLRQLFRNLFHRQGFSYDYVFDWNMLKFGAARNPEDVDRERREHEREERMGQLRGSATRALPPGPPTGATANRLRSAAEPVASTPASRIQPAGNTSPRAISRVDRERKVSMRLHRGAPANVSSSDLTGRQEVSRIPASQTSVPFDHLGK

IC50 [1] | IC50 (Aurora kinase A) | IC50 [2] | IC50 [3] | IC50 [4] | IC50 [5] | residual activity [6] | residual activity [7] | Compound | Activity (Danio rerio [8]) | Activity (Danio rerio [9]) | Activity (Danio rerio [10]) | Activity (Danio rerio [11]) | Activity (Danio rerio [12])
> 100 µM | > 100 µM | > 100 µM | > 100 µM | 3.64 µM | 0.22 µM |  |  | COc1ccc(CNC(=O)Nc2nc3ccc([N+](=O)[O-])cc3s2)cc1 |  |  |  |  | 
> 100 µM |  | > 100 µM |  |  |  | 55% | 20% | COc1ccc(CNC(=O)Nc2ncc([N+](=O)[O-])s2)cc1 | Toxic |  |  |  | 
15.3 µM | 4.8 µM | 24.2 µM | 26.4 µM | 0.14 µM | 0.13 µM | 69% | 18% | COc1ccc(CNC(=O)Nc2nc3ccc(-c4nnn[nH]4)cc3s2)cc1 | Non-toxic | Toxic | Toxic |  | 
 |  |  |  |  |  | 75% | 31% | COc1ccc(CNC(=O)Nc2ccc([N+](=O)[O-])cn2)cc1 |  |  |  |  | 
 |  |  |  |  |  | 57% | 24% | COc1ccc(CNC(=O)Nc2nc3ccc(C#N)cc3s2)cc1 |  |  |  |  | 

The remaining lines, values behind:

Compound | IC50 [1] | IC50 (Aurora kinase A) | IC50 [2] | IC50 [3] | IC50 [4] | IC50 [5] | residual activity [6] | residual activity [7] | Activity (Danio rerio [8]) | Activity (Danio rerio [9]) | Activity (Danio rerio [10]) | Activity (Danio rerio [11]) | Activity (Danio rerio [12])
COc1ccc(CNC(=O)Nc2cc(C#N)ccn2)cc1 | > 100 µM | > 100 µM | > 100 µM | > 100 µM | 1.43 µM | 1.12 µM | 101% | 42% |  |  |  |  | 
Nc1nc(NCCNc2ncc(-c3ncc[nH]3)c(-c3ccc(Cl)cc3Cl)n2)ccc1[N+](=O)[O-] |  |  |  |  |  |  |  |  | Non-toxic |  |  | Toxic | Toxic
CCOC(=O)c1sc(NC(=O)NCc2ccc(F)cc2)nc1C |  |  |  |  |  |  |  |  | Non-toxic |  |  |  | 
COc1ccc(CNC(=O)Nc2cc(-c3cccnc3F)ccn2)cc1 |  |  |  |  | 0.098 µM |  |  | 12% |  |  |  |  | 
COc1ccc(CNC(=O)Nc2cc(-c3nnn[nH]3)ccn2)cc1 | > 100 µM | > 100 µM | > 100 µM | > 100 µM | 0.51 µM | 0.37 µM | 82% | 24% | Non-toxic | Toxic | Toxic |  | 
COc1ccc(CNC(=O)Nc2cc(-c3ccccc3OC)ccn2)cc1 |  |  |  |  |  |  | 91% | 32% |  |  |  |  | 
COc1ccc(CNC(=O)Nc2ccc(C#N)cn2)cc1 |  |  |  |  |  |  | 79% | 40% |  |  |  |  | 
